From US20180193289A1, “PROTOTYPICAL MOLECULAR PHARMACOLOGIC PROFILE OF FENDILINE AGAINST NEURODEGENERATIVE AND NEURODEVELOPMENTAL DISEASES” (priority 2016, published 2018)

Assays:
[1] = neuropathic pain animal models; type: in vivo; conditions: appropriate animal models
[2] = system: mice; experiment: PTZ clonic convulsions and fatal tonic crises in mice; type: in vivo
[3] = system: sodium channels; experiment: allosteric modulation of sodium channels; conditions: σ1 induced
[4] = system: mice; experiment: Pentylenetetrazole (PTZ) induced behavioral effects and seizures in mice; type: in vivo; conditions: Fendiline 1.0 to 50 mg/kg (po), PTZ 10 to 70 mg/kg (ip)
Description: In good agreement with the above receptors affinities and its molecular pharmacological properties, Fendiline, at 1.0 to 50 mg/kg, (po), in mice antagonized all the behavioral effects (in mice) corresponding to the symptoms, in humans, announcing the development of the neurodegenerative and neurodevelopmental diseases, i.e., anxiety, fear, social disconnection, agressivity, compulsive reactions, hypermotility, stereotypic activity, pain, lethargy and seizures, appearing at various degrees according to the amplitude of the Glutamate/GABA imbalance and to the brain regions (Basal Ganglia, Hippocampus, Cortex) affected by the above imbalance. Indeed, all the above behavioral effects (obtained, in mice, by administration of the GABAergic antagonist Pentylenetetrazole (PTZ) at 10 to 70 mg/kg, intraperitoneal (ip): with 10 to 40 mg/kg (ip) giving fear, anxiety, social disconnection, and agressivity, hypermotility and stereotypies—the latter being better expressed by previous (reserpine induced) hypersensibilisation of the brain DA receptors—and seizures (obtained at 50 to 70 mg/kg (ip) of PTZ), were antagonized by Fendiline at 1.0 to 50 mg/kg (po).

[5] = system: mice; experiment: Maximal Electroshock tonic extension; conditions: mouse, in vivo
[6] = system: N-methyl-D-aspartic acid (NMDA) glutamatergic receptors; experiment: allosteric modulation of NMDA receptors; conditions: σ1 induced
[7] = system: GABA (B) receptors; experiment: allosteric modulation of GABA (B) receptors
[8] = biological target: T1, sigma-1(σ1) receptor (Mus musculus, UniProt O55242); experiment: sigma-1 agonistic/antagonistic activity in mice; type: in vivo
T1 construct: from tissue; host or cells: whole animal (mice, oral administration)
T1 sequence (O55242 whole entry): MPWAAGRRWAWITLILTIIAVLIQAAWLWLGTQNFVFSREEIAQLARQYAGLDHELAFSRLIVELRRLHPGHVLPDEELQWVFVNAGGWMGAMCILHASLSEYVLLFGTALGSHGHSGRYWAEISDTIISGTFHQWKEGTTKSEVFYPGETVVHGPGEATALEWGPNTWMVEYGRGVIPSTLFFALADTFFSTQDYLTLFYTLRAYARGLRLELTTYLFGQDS

[9] = system: cholinergic muscarinic receptors; experiment: modulation of muscarinic receptors; conditions: σ1 induced
[10] = system: GABA (A) receptors; experiment: allosteric modulation of GABA (A) receptors

CC(NCCC(c1ccccc1)c1ccccc1)c1ccccc1 (stereo not shown) [Fendiline, 3,3-diphenyl-N-(1-phenylethyl) propan-1-amine]
effect against neuropathic pain [1]: analgesic effect | protection against fatal tonic crises (tonic extensions), high doses of PTZ ([2]; PTZ more than 80 mg/kg (ip), in mice): did not protect | protection against PTZ clonic convulsions ([2]; mice): did not protect | modulation of sodium channels [3]: negative allosteric modulations | effect on PTZ induced behavioral effects (fear, anxiety, social disconnection, agressivity, hypermotility, stereotypies, seizures) [4]: antagonized | protection against fatal tonic crises (tonic extensions), Maximal Electrochock [5]: did not protect | modulation of NMDA glutamatergic receptors [6]: negative allosteric modulations | modulation of GABA (B) receptors [7]: allosteric positive modulation | sigma-1 activity at low doses ([8]; 0,003 to 1.0 mg/kg per os (po), in mice): partial agonistic activity | sigma-1 activity at higher doses ([8]; more than 1.0 mg/kg (po) in mice): antagonistic | sigma-1 intrinsic activity ([8]; mouse, in vivo): low intrinsic activity | modulation of cholinergic muscarinic receptors [9]: discreet negative modulation | modulation of GABA (A) receptors [10]: allosteric positive modulation
